“And” between values parts separate entries of the source, which are not always exact repeats. Equal entries are not always repeated.

This assay has as its target Replicase polyprotein 1ab (Severe acute respiratory syndrome coronavirus 2, UniProt P0DTD1). Kind of assay: Functional biochemical assay to identify treatments for viral infectious disease that targets SARS-COV-2 nsp3 macrodomain, whereby the mechanism of action displaces an ADP-Ribose modified peptide from the binding site. Utilizing a time-resolved fluorescence method to measure binding by reading the emitted fluorescence intensity in two wavelengths.
What is called IC50 is the point on the concentration scale where inhibition reaches its midpoint. A high value points to weaker potency in that assay. Take `O[C@H]1C[C@](CNc2ncnc3[nH]ccc23)(c2ccccc2)C1`: the half-maximal inhibitory concentration (IC50) is above 124 µM.

The compound `O=C(OCc1ccc(Cl)nc1)c1ncnc2[nH]ccc12` yielded a half-maximal inhibitory concentration (IC50) above 99.5 µM.

Compound `Cc1cccc(Cl)c1-n1sc(=O)n(CC2CC2)c1=O` registered a half-inhibitory concentration (IC50) of 23 µM. In the case of `O=C(c1ccccc1)N1CCC(c2ccn3ncc(C(=O)N4CCc5nc[nH]c5C4)c3c2)CC1`, the 50% inhibitory concentration (IC50) is above 99.5 µM.

`OC[C@@]1(Cc2ccc(F)cc2)CCN(c2ncnc3[nH]ccc23)C1` had a 50% inhibitory concentration (IC50) above 99.5 µM.

Consider `O=C(OCc1cccc(Cl)n1)c1ncnc2[nH]ccc12`, for which the concentration for half-maximal inhibition (IC50) was above 124 µM.

For `O=C(Nc1cnc2[nH]ncc2c1)C1CCN(c2ccc3nncn3n2)CC1`, the IC50 is above 124 µM. Take `FC(F)(F)CO[C@@H]1CCCN(c2ncnc3[nH]ccc23)C1`: the IC50 is above 124 µM.

For `Cc1[nH]c2ncnc(NCc3ccco3)c2c1C`, the IC50 was above 99.5 µM.

`O=C(OCc1ncccc1Cl)c1ncnc2[nH]ccc12` had an IC50 above 99.5 µM. `Cc1[nH]c2ncnc(NC(=O)c3ncn(-c4ccccc4)n3)c2c1C` had an IC50 above 99.5 µM. Next, `Brc1ccc(-n2nnnc2Sc2ncnc3[nH]ccc23)cc1`: above 124 µM; `Cc1nc(C)c(CC(=O)Nc2cnc3[nH]ncc3c2)c(=O)[nH]1`: above 99.5 µM; `Cc1[nH]c2ncnc(NC(=O)[C@@H]3CCO[C@@H]3C)c2c1C`: 122 µM. Then `C[C@@H](CO)Nc1ncnc2[nH]c(C(=O)OC(C)(C)C)cc12`, with above 124 µM; and `O=C(NCc1cc2n(n1)CCCC2)c1cc2cncnc2[nH]1`, with above 124 µM. Then `O=C(Nc1ccccc1)Nc1ccc(C(=O)NC2c3cccc(O)c3CC2C(=O)O)cc1` (stereo unspecified), with 1.02 µM and 1.06 µM and 650 nM and 440 nM (3×) and 535 nM and 555 nM and 628 nM and 598 nM and 632 nM (2×) and 644 nM and 653 nM (2×) and 470 nM and 462 nM and 430 nM and 474 nM and 540 nM and 599 nM and 592 nM and 435 nM and 316 nM and 338 nM and 701 nM and 439 nM and 411 nM and 374 nM (2×) and 353 nM (2×) and 447 nM and 847 nM and 925 nM and 461 nM and 794 nM and 731 nM and 432 nM and 1.1 µM and 317 nM and 406 nM and 649 nM and 516 nM and 384 nM and 402 nM and 289 nM and 506 nM and 262 nM and 224 nM; and `Cc1cccc(C)c1-n1nnnc1CSc1ncnc2[nH]cnc12`, with above 99.5 µM. In the case of `C=CCn1c(Sc2ncnc3[nH]ccc23)nc2sccc2c1=O`, the half-inhibitory concentration (IC50) is above 99.5 µM. As for `CC[C@@H]1C[C@@H](C(=O)Nc2ncnc3[nH]c(C)c(C)c23)CCO1`, the IC50 was above 124 µM. Next, `CC(C)OCCNC(=O)c1cc2c(=O)n3ccccc3nc2n1C`: above 124 µM. Next, `O=C(Nc1ccc(C(=O)NCc2c(C(=O)O)[nH]c3ccccc23)cc1)NC1CC1`: 13.6 µM. Then `NS(=O)(=O)c1ccccc1CNc1ncnc2[nH]ccc12`, with above 124 µM; and `c1ccc(-c2cc(CNc3ncnc4[nH]ccc34)on2)cc1`, with above 124 µM. As to `OC[C@@H](Nc1ncnc2[nH]c(I)cc12)c1ccccc1`, the IC50 was above 124 µM. Then `Cc1cc(NCc2cnc3c(c2)NC(=O)CO3)cnc1C`, with above 124 µM.

Compound `Cc1n[nH]nc1C(=O)N1CCC(c2ccn3ncc(C(=O)N4CCCCC4)c3c2)CC1` registered a concentration for half-maximal inhibition (IC50) above 99.5 µM. Then `Cc1nc(C(=O)N2CCC(c3ccn4ncc(C(=O)N5CCCCC5)c4c3)CC2)c(=O)[nH]c1C`, with above 99.5 µM. Take `c1cc(-c2nnc(Sc3ncnc4[nH]ccc34)[nH]2)ccn1`: the half-maximal inhibitory concentration (IC50) is above 124 µM.

Regarding `CC(C)[C@@H](Nc1ncnc2n[nH]cc12)c1cnn(C)c1`, the half-inhibitory concentration (IC50) was found to be 43.1 µM. This lies in the double-digit micromolar range.

On to `O=C(c1cccc(Br)c1)N1CCC(c2ccn3ncc(C(=O)N4CCCCC4)c3c2)CC1`, for which the 50% inhibitory concentration (IC50) was above 124 µM. Then `Cc1ccc(-c2n[nH]cc2CNc2cnc3[nH]ncc3c2)o1`, with above 124 µM; and `Cn1ncc2c(NCc3ncccc3O)ncnc21`, with above 124 µM. Next, `CC(=O)Nc1ccc(S(=O)(=O)NNc2ncnc3sccc23)cc1`: above 99.5 µM; `O=C(O)[C@H]1CCCCCN1C(=O)c1ncnc2[nH]ccc12`: above 124 µM; `Cc1[nH]c2ncnc(NC(=O)CCc3ccccc3)c2c1C`: above 99.5 µM.

Source of the values: ChEMBL document CHEMBL5441456, “ASAP - SARS-CoV-2 nsp3 macrodomain dose response” (2024).
